Results as given in patent publication US11279687B2, “Compounds and compositions for the inhibition of NAMPT” (Valo Health, Inc., priority 2010, dated 2022).

Assays:
NAMPT = NAMPT (Homo sapiens (Human), UniProt P43490); assay: NAMPT biochemical inhibition assay (NMN quantified by mass spectrometry); details: NAMPT biochemical inhibition; read-out: Biochem IC50
A2780 cells = assay: In-vitro cell proliferation assay (SRB), A2780 cells; format: cell-based; details: Homo sapiens, A2780, 72 h, A2780 cells, 72 hours, SRB; read-out: A2780 IC50;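 also: viable cell number read as SRB absorbance, background from media-only wells subtracted, IC50 interpolated from percent inhibition at two bracketing compound concentrations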

NAMPT, sequence (P43490 whole entry): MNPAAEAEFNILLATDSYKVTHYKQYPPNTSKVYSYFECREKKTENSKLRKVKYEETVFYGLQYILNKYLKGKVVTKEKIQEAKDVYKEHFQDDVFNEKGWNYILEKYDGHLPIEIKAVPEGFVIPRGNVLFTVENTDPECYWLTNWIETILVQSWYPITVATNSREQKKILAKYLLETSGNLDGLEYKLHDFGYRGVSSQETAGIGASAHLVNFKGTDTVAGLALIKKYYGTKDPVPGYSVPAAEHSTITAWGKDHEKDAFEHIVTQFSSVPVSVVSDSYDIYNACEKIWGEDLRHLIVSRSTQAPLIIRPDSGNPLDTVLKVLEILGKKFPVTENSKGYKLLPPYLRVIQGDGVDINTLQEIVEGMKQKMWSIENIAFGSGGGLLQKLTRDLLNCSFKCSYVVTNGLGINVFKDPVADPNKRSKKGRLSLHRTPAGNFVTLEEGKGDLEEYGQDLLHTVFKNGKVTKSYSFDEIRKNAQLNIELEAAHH

Compound	IC50 (NAMPT)	IC50 (A2780 cells)
COc1cc(NS(=O)(=O)c2ccc(NC(=O)NCc3cccnc3)cc2)cc(OC)c1 [3-{4-[(3,5-dimethoxyphenyl)sulfamoyl]phenyl}-1-(pyridin-3-ylmethyl)urea]	0.005 µM	0.096 µM
Cc1cc(C)cc(S(=O)(=O)c2ccc(NC(=O)NCc3cccnc3)cc2)c1 [3-{4-[(3,5-dimethylbenzene)sulfonyl]phenyl}-1-(pyridin-3-ylmethyl)urea]	0.001 µM	0.04 µM
Cc1cc(C)cc(NS(=O)(=O)c2ccc(NC(=O)NCc3cccnc3)cc2)c1 [3-{4-[(3,5-dimethylphenyl)sulfamoyl]phenyl}-1-(pyridin-3-ylmethyl)urea]	0.001 µM	0.041 µM
CC(=O)c1cccc(S(=O)(=O)c2ccc(NC(=O)NCc3cccnc3)cc2)c1 [3-{4-[(3-acetylbenzene)sulfonyl]phenyl}-1-(pyridin-3-ylmethyl)urea]	0.0021 µM	0.1 to 1 µM
CS(=O)(=O)N(c1cccc(N)c1)S(=O)(=O)c1ccc(NC(=O)NCc2cccnc2)cc1 [3-{4-[(3-aminophenyl)(methanesulfonyl)sulfamoyl]phenyl}-1-(pyridin-3-ylmethyl)urea]	0.003 µM	0.11 µM
CCCOc1ccc(S(=O)(=O)c2ccc(NC(=O)NCc3cccnc3)cc2)cc1Cl [3-{4-[(3-chloro-4-propoxybenzene)sulfonyl]phenyl}-1-(pyridin-3-ylmethyl)urea]	0.0046 µM	0.1 to 1 µM
CCS(=O)(=O)Nc1cccc(S(=O)(=O)c2ccc(NC(=O)NCc3cccnc3)cc2)c1 [3-{4-[(3-ethanesulfonamidobenzene)sulfonyl]phenyl}-1-(pyridin-3-ylmethyl)urea]	0.0011 µM	0.0695 µM
CCOc1cccc(S(=O)(=O)c2ccc(NC(=O)NCc3cccnc3)cc2)c1 [3-{4-[(3-ethoxybenzene)sulfonyl]phenyl}-1-(pyridin-3-ylmethyl)urea]	0.0017 µM	0.0837 µM
CCc1cccc(S(=O)(=O)c2ccc(NC(=O)NCc3cccnc3)cc2)c1 [3-{4-[(3-ethylbenzene)sulfonyl]phenyl}-1-(pyridin-3-ylmethyl)urea]	0.002 µM	0.0708 µM
CS(=O)(=O)c1cccc(S(=O)(=O)c2ccc(NC(=O)NCc3cccnc3)cc2)c1 [3-{4-[(3-methanesulfonylbenzene)sulfonyl]phenyl}-1-(pyridin-3-ylmethyl)urea]	0.0066 µM	0.1 to 1 µM
COc1cc(NS(=O)(=O)c2ccc(NC(=O)NCc3cccnc3)cc2)ccc1C [3-{4-[(3-methoxy-4-methylphenyl)sulfamoyl]phenyl}-1-(pyridin-3-ylmethyl)urea]	0.004 µM	0.148 µM
CCCOc1cccc(S(=O)(=O)c2ccc(NC(=O)NCc3cccnc3)cc2)c1 [3-{4-[(3-propoxybenzene)sulfonyl]phenyl}-1-(pyridin-3-ylmethyl)urea]	0.0038 µM	0.1 to 1 µM
Cc1cccc(N2CCN(S(=O)(=O)c3ccc(NC(=O)NCc4cccnc4)cc3)C[C@@H]2C)c1 [3-{4-[(3S)-3-methyl-4-(3-methylphenyl)piperazine-1-sulfonyl]phenyl}-1-(pyridin-3-ylmethyl)urea]	0.003 µM	0.034 µM
Cc1ccc(N2CCN(S(=O)(=O)c3ccc(NC(=O)NCc4cccnc4)cc3)C[C@@H]2C)cc1 [3-{4-[(3S)-3-methyl-4-(4-methylphenyl)piperazine-1-sulfonyl]phenyl}-1-(pyridin-3-ylmethyl)urea]	0.004 µM	0.095 µM
CC(=O)c1ccc(S(=O)(=O)c2ccc(NC(=O)NCc3cccnc3)cc2)cc1 [3-{4-[(4-acetylbenzene)sulfonyl]phenyl}-1-(pyridin-3-ylmethyl)urea]	0.002 µM	0.1 to 1 µM
CC(=O)c1ccc(NS(=O)(=O)c2ccc(NC(=O)NCc3cccnc3)cc2)cc1 [3-{4-[(4-acetylphenyl)sulfanoyl]phenyl}-1-(pyridin-3-ylmethyl)urea]	0.0144 µM	1 to 10 µM
O=C(NCc1cccnc1)Nc1ccc([S+]([O-])c2ccc(Cl)cc2)cc1 (stereo not drawn) [3-{4-[(4-chlorobenzene)sulfmyl]phenyl}-1-(pyridin-3-ylmethyl)urea]	0.008 µM	0.041 µM
O=C(NCc1cccnc1)Nc1ccc(S(=O)(=O)Nc2ccc(Cl)c3ccccc23)cc1 [3-{4-[(4-chloronaphthalen-1-yl)sulfamoyl]phenyl}-1-(pyridin-3-ylmethyl)urea]	0.005 µM	0.053 µM
CCOc1ccc(NS(=O)(=O)c2ccc(NC(=O)NCc3cccnc3)cc2)c(F)c1 [3-{4-[(4-ethoxy-2-fluorophenyl)sulfamoyl]phenyl}-1-(pyridin-3-ylmethyl)urea]	0.004 µM	0.157 µM

Other lines, results leading:

IC50 (NAMPT)	IC50 (A2780 cells)	Compound
0.0019 µM	0.1 to 1 µM	O=C(NCc1cccnc1)Nc1ccc(S(=O)(=O)c2cc(Cl)cc(Cl)c2)cc1 [3-{4-[(3,5-dichlorobenzene)sulfonyl]phenyl}-1-(pyridin-3-ylmethyl)urea]
0.003 µM	0.284 µM	O=C(NCc1cccnc1)Nc1ccc(S(=O)(=O)c2cc(F)cc(F)c2)cc1 [3-{4-[(3,5-difluorobenzene)sulfonyl]phenyl}-1-(pyridin-3-ylmethyl)urea]
0.002 µM	0.322 µM	O=C(NCc1cccnc1)Nc1ccc(S(=O)(=O)c2cccc(Br)c2)cc1 [3-{4-[(3-bromobenzene)sulfonyl]phenyl}-1-(pyridin-3-ylmethyl)urea]
0.0013 µM	0.0929 µM	COc1ccc(S(=O)(=O)c2ccc(NC(=O)NCc3cccnc3)cc2)cc1Cl [3-{4-[(3-chloro-4-methoxybenzene)sulfonyl]phenyl}-1-(pyridin-3-ylmethyl)urea]
0.0009 µM	0.1 to 1 µM	Cc1ccc(S(=O)(=O)c2ccc(NC(=O)NCc3cccnc3)cc2)cc1Cl [3-{4-[(3-chloro-4-methylbenzene)sulfonyl]phenyl}-1-(pyridin-3-ylmethyl)urea]
0.0014 µM	0.026 µM	Cc1ccc(NS(=O)(=O)c2ccc(NC(=O)NCc3cccnc3)cc2)cc1Cl [3-{4-[(3-chloro-4-methylphenyl)sulfamoyl]phenyl}-1-(pyridin-3-ylmethyl)urea]
0.0013 µM	0.0272 µM	COc1cc(Cl)cc(S(=O)(=O)c2ccc(NC(=O)NCc3cccnc3)cc2)c1 [3-{4-[(3-chloro-5-methoxybenzene)sulfonyl]phenyl}-1-(pyridin-3-ylmethyl)urea]
0.0018 µM	0.0671 µM	Cc1cc(Cl)cc(S(=O)(=O)c2ccc(NC(=O)NCc3cccnc3)cc2)c1 [3-{4-[(3-chloro-5-methylbenzene)sulfonyl]phenyl}-1-(pyridin-3-ylmethyl)urea]
0.003 µM	0.518 µM	O=C(NCc1cccnc1)Nc1ccc(S(=O)(=O)c2cccc(Cl)c2)cc1 [3-{4-[(3-chlorobenzene)sulfonyl]phenyl}-1-(pyridin-3-ylmethyl)urea]
0.0039 µM	0.0283 µM	CCOc1cc(S(=O)(=O)c2ccc(NC(=O)NCc3cccnc3)cc2)ccc1F [3-{4-[(3-ethoxy-4-fluorobenzene)sulfonyl]phenyl}-1-(pyridin-3-ylmethyl)urea]
0.002 µM	0.173 µM	COc1ccc(S(=O)(=O)c2ccc(NC(=O)NCc3cccnc3)cc2)cc1F [3-{4-[(3-fluoro-4-methoxybenzene)sulfonyl]phenyl}-1-(pyridin-3-ylmethyl)urea]
0.001 µM	0.206 µM	Cc1ccc(S(=O)(=O)c2ccc(NC(=O)NCc3cccnc3)cc2)cc1F [3-{4-[(3-fluoro-4-methylbenzene)sulfonyl]phenyl}-1-(pyridin-3-ylmethyl)urea]
0.0013 µM	0.0585 µM	CCCOc1ccc(S(=O)(=O)c2ccc(NC(=O)NCc3cccnc3)cc2)cc1F [3-{4-[(3-fluoro-4-propoxybenzene)sulfonyl]phenyl}-1-(pyridin-3-ylmethyl)urea]
0.0017 µM	0.1 to 1 µM	COc1cc(F)cc(S(=O)(=O)c2ccc(NC(=O)NCc3cccnc3)cc2)c1 [3-{4-[(3-fluoro-5-methoxybenzene)sulfonyl]phenyl}-1-(pyridin-3-ylmethyl)urea]
0.0017 µM	0.0993 µM	Cc1cc(F)cc(S(=O)(=O)c2ccc(NC(=O)NCc3cccnc3)cc2)c1 [3-{4-[(3-fluoro-5-methylbenzene)sulfonyl]phenyl}-1-(pyridin-3-ylmethyl)urea]
0.001 µM	0.238 µM	O=C(NCc1cccnc1)Nc1ccc(S(=O)(=O)c2cccc(F)c2)cc1 [3-{4-[(3-fluorobenzene)sulfonyl]phenyl}-1-(pyridin-3-ylmethyl)urea]
0.0027 µM	0.0179 µM	COc1cc(S(=O)(=O)c2ccc(NC(=O)NCc3cccnc3)cc2)ccc1C [3-{4-[(3-methoxy-4-methylbenzene)sulfonyl]phenyl}-1-(pyridin-3-ylmethyl)urea]
0.002 µM	0.157 µM	Cc1cccc(S(=O)(=O)c2ccc(NC(=O)NCc3cccnc3)cc2)c1 [3-{4-[(3-methylbenzene)sulfonyl]phenyl}-1-(pyridin-3-ylmethyl)urea]
0.003 µM	0.239 µM	O=C(NCc1cccnc1)Nc1ccc(S(=O)(=O)c2ccc(Br)cc2)cc1 [3-{4-[(4-bromobenzene)sulfonyl]phenyl}-1-(pyridin-3-ylmethyl)urea]
0.002 µM	0.415 µM	O=C(NCc1cccnc1)Nc1ccc(S(=O)(=O)c2ccc(Cl)cc2F)cc1 [3-{4-[(4-chloro-2-fluorobenzene)sulfonyl]phenyl}-1-(pyridin-3-ylmethyl)urea]
0.006 µM	0.755 µM	Cc1cc(Cl)ccc1S(=O)(=O)c1ccc(NC(=O)NCc2cccnc2)cc1 [3-{4-[(4-chloro-2-methylbenzene)sulfonyl]phenyl}-1-(pyridin-3-ylmethyl)urea]
0.003 µM	0.221 µM	O=C(NCc1cccnc1)Nc1ccc(S(=O)(=O)c2ccc(Cl)c(F)c2)cc1 [3-{4-[(4-chloro-3-fluorobenzene)sulfonyl]phenyl}-1-(pyridin-3-ylmethyl)urea]
0.0044 µM	0.0632 µM	COc1cc(S(=O)(=O)c2ccc(NC(=O)NCc3cccnc3)cc2)ccc1Cl [3-{4-[(4-chloro-3-methoxybenzene)sulfonyl]phenyl}-1-(pyridin-3-ylmethyl)urea]
